Measured values published in US20110195911A1, “SYNTHETIC ANALOGS OF THE JUXTAMEMBRANE DOMAIN OF IGF1R AND USES THEREOF” (THE UNITED STATES OF AMERICA,AS REPRESENTED BY THE …, priority 2008, published 2011).
Where a SMILES comes first, the peptide text is derived from it. The star is where a group is joined. Palmitoyl = CCCCCCCCCCCCCCCC(=O)*

System: MCF-7 breast cancer cells
Assay: MTT cell toxicity assay in MCF-7 breast cancer cells
Type: cell-based
Conditions: MCF-7 cells, MTT, final 0.5% FBS, two days with compound; for TGI: concentration of total growth inhibition (cytostatic)
Protocol: Cell Toxicity Assays: MCF-7 (breast cancer), T47D (breast cancer), Colo 205 (colon cancer), JM-1 (rat hepatoma), Sk Me1-2 (melanoma), PLC (human hepatoma), and HepG2 (human hepatoma) cells were obtained from American Type Cell Culture Collection. MCF-7 cells were grown in RPMI medium supplemented with 10% Fetal Bovine Serum. The rest of the cell lines were grown in DMEM medium supplemented with 10% Fetal Bovine Serum.
MTT 43-(4,5-Dimethylthiazol-2-yl)-2,5-diphenyltetrazolium) cell assay was performed using MCF-7 breast cancer cells. For the assay, cells were seeded into 96 well plates in medium containing 1% Fetal Bovine Serum and 100 μL of a cell suspension containing 5000 cells per well. Wells containing medium-only, and wells containing untreated cells, served as controls.
Seeded cells were allowed to attach and grow in the wells for 24 hours. A 5 mM stock solution of each peptide was made by dissolving approximately 1 mg of peptide in appropriate amount of DMSO. 2 mL dilutions were used to make 0.2 μM, 1.0 μM, 5.0 μM, and 10.0 μM concentration solutions of the compounds in serum-free medium. 100 μl, of the resulting 2× solutions were added to the corresponding wells to provide a final FBS concentration of 0.5% and 0.1 μM, 0.5 μM, 2.5 μM, and 5.0 μM dilutions of inhibitors. The cells were incubated with test compounds for two days. The control wells were given 100 μL of medium to ensure maximum similarity to the test wells so that all of the wells had 200 μL of medium during the growth period. An individual plate was made for Time Zero, to which the dye was added at the time of addition of compounds.
An alternative potency assay was used to test compounds in MCF-7 (breast cancer), T47D (breast cancer), Colo 205 (colon cancer), JM-1 (rat hepatoma), Sk MeI-2 (melanoma), PLC (human hepatoma), and HepG2 (human hepatoma) cells. Cells were suspended at a concentration of approximately 5000 cells per 100 μL of suspension in a 5% FBS RPMI medium. The cells were seeded into 96-count wells and incubated over night. After one day's incubation, the 5% FBS medium was aspirated and replaced with 100 μL of no serum RPMI medium containing 1 mg Bovine Serum Albumin (BSA) per 1 mL RPMI. Various concentrations of the test compounds were prepared by dilution in no-serum medium containing 1 mg BSA/mL. 75 μL of the test compound solutions were added to the wells, and the cells were allowed to incubate for 15-20 minutes, after which time 25 μL of human recombinant IGF-1 (Peprotech) solution was added to the wells to attain final concentrations of 10 ng IGF-1/mL medium. The control wells were given 175 μL of no-serum medium in addition to 25 μL of IGF-1 solution. An individual plate was made for time zero, in which the medium was also aspirated and replaced with 175 μL of no-serum medium and 25 μL of IGF-1. 15 μL of MTT dye was added and let incubate for 4 hours, after which time a stop stop solubilization solution was added. The stop solution lysed the cells and released the dye reduced by the remaining living cells. Absorbance of the wells at 544 nm was determined by a FLUOstar/POLARstar Galaxy (BMG Lab Technologies GmbH) microplate reader. The activity was calculated from the data using the formula: 100×[(T−T0)/(C−T0)] for T>T0 and 100×[(T−T0)/T0] for T<T0, wherein T0 corresponds to cell density at the time of drug addition, “T” is the optical density of the test well after a 48-h period of exposure to test drug, and “C” is the control optical density. The GI50 measures the growth inhibitory power of the test agent, and is defined as the concentration of test drug where 100×(T−T0)/(C−T0)=50. The TGI is the concentration of test drug where 100×(T−T0)/(C−T0)=0. Thus, the TGI signifies a cytostatic effect.

Compound	GI50	TGI
CCCCCCCCCCCCCCCC(=O)N[C@H](C(=O)N[C@@H](Cc1ccccc1)C(=O)N[C@@H](Cc1c[nH]cn1)C(=O)N[C@@H](CCCNC(=N)N)C(=O)N[C@@H](CCCCN)C(=O)N[C@@H](CCCNC(=N)N)C(=O)N[C@@H](CC(N)=O)C(=O)N[C@@H](CC(N)=O)C(=O)N[C@@H](CO)C(=O)N[C@@H](CCCNC(=N)N)C(=O)N[C@@H](CC(C)C)C(=O)NCC(=O)N[C@@H](CC(N)=O)C(=O)NCC(=O)N[C@H](C(=O)N[C@@H](CC(C)C)C(=O)N[C@@H](Cc1ccc(O)cc1)C(=O)N[C@@H](C)C(=O)N[C@@H](CO)C(=O)N[C@H](C(=O)N[C@@H](CC(N)=O)C(N)=O)C(C)C)C(C)C)C(C)C [Peptide 24] (Palmitoyl-VFHRKRNNSRLGNGVLYASVN-NH2)	100 ± 50 nM	1.1 ± 0.1 µM
CCCCCCCCCCCCCCCC(=O)N[C@@H](CCCCN)C(=O)N[C@@H](CCCNC(=N)N)C(=O)N[C@@H](CC(N)=O)C(=O)N[C@@H](CC(N)=O)C(=O)N[C@@H](CO)C(=O)N[C@@H](CCCNC(=N)N)C(=O)N[C@@H](CC(C)C)C(=O)NCC(=O)N[C@@H](CC(N)=O)C(=O)NCC(=O)N[C@H](C(=O)N[C@@H](CC(C)C)C(=O)N[C@@H](Cc1ccc(O)cc1)C(N)=O)C(C)C [Peptide 27, Pal-KRNNSRLGNGVLY-NH2] (Palmitoyl-KRNNSRLGNGVLY-NH2)	1100 ± 60 nM	2.5 ± 0.5 µM
CCCCCCCCCCCCCCCC(=O)N[C@@H](CCCNC(=N)N)C(=O)N[C@@H](CC(N)=O)C(=O)N[C@@H](CC(N)=O)C(=O)N[C@@H](CO)C(=O)N[C@@H](CCCNC(=N)N)C(=O)N[C@@H](CC(C)C)C(=O)NCC(=O)N[C@@H](CC(N)=O)C(=O)NCC(=O)N[C@H](C(=O)N[C@@H](CC(C)C)C(=O)N[C@@H](Cc1ccccc1)C(N)=O)C(C)C [Peptide 29, Pal-RNNSRLGNGVLF-NH2] (Palmitoyl-RNNSRLGNGVLF-NH2)	100 ± 5 nM	1.2 ± 0.05 µM
CCCCCCCCCCCCCCCC(=O)N[C@@H](CCCNC(=N)N)C(=O)N[C@@H](CC(N)=O)C(=O)N[C@@H](CC(N)=O)C(=O)N[C@@H](CO)C(=O)N[C@@H](CCCNC(=N)N)C(=O)N[C@@H](CC(C)C)C(=O)NCC(=O)N[C@@H](CC(N)=O)C(=O)NCC(=O)N[C@H](C(=O)N[C@@H](CC(C)C)C(N)=O)C(C)C [Peptide 30, Pal-RNNSRLGNGVL-NH2] (Palmitoyl-RNNSRLGNGVL-NH2)	1700 ± 50 nM	3.7 ± 0.05 µM
CCCCCCCCCCCCCCCC(=O)N[C@@H](CCCNC(=N)N)C(=O)N[C@@H](CC(N)=O)C(=O)N[C@@H](CC(N)=O)C(=O)N[C@@H](CO)C(=O)N[C@@H](CCCNC(=N)N)C(=O)N[C@@H](CC(C)C)C(=O)NCC(=O)N[C@@H](CC(N)=O)C(=O)NCC(=O)N[C@H](C(=O)N[C@@H](CC(C)C)C(=O)N[C@@H](Cc1ccc(O)cc1)C(=O)N[C@@H](C)C(N)=O)C(C)C [Peptide 33, Pal-RNNSRLGNGVLYA-NH2] (Palmitoyl-RNNSRLGNGVLYA-NH2)	100 ± 50 nM	>5 µM
CCCCCCCCCCCCCCCC(=O)N[C@@H](CCCNC(=N)N)C(=O)N[C@@H](CC(N)=O)C(=O)N[C@@H](CC(N)=O)C(=O)N[C@@H](CO)C(=O)N[C@@H](CCCNC(=N)N)C(=O)N[C@@H](CC(C)C)C(=O)NCC(=O)N[C@@H](CC(N)=O)C(=O)NCC(=O)N[C@H](C(=O)N[C@@H](CC(C)C)C(=O)N[C@@H](Cc1ccc(O)cc1)C(=O)N[C@@H](C)C(=O)N[C@@H](CO)C(N)=O)C(C)C [Peptide 34, Pal-RNNSRLGNGVLYAS-NH2] (Palmitoyl-RNNSRLGNGVLYAS-NH2)	40 ± 1 nM	>5 µM
CCCCCCCCCCCCCCCC(=O)N[C@@H](CCCNC(=N)N)C(=O)N[C@@H](CC(N)=O)C(=O)N[C@@H](CC(N)=O)C(=O)N[C@@H](CO)C(=O)N[C@@H](CCCNC(=N)N)C(=O)N[C@@H](CC(C)C)C(=O)NCC(=O)N[C@@H](CC(N)=O)C(=O)NCC(=O)N[C@H](C(=O)N[C@@H](CC(C)C)C(=O)N[C@@H](Cc1ccc(O)cc1)C(=O)N[C@@H](C)C(=O)N[C@@H](CO)C(=O)N[C@H](C(N)=O)C(C)C)C(C)C [Peptide 35, Pal-RNNSRLGNGVLYASV-NH2] (Palmitoyl-RNNSRLGNGVLYASV-NH2)	50 ± 1 nM	2.5 ± 0.5 µM
